Reference: US20240180836A1, “Cationic Lipid Compound and Composition for Delivery of Nucleic Acids and Use Thereof” (Shenzhen Rhegen Biotechnology Co., Ltd., priority 2022, published 2024)

Experiment: In vivo metabolic rates of cationic lipids (cationic lipid content in liver by HPLC-CAD)
Conditions: 5 ug EPO-mRNA-lipid nanoparticles, tail vein injection, female Balb/c mice, 1 h to 48 h after injection, compared with DLin-MC3-DMA
Method: 5 ug EPO-mRNA-lipid nanoparticles were injected via tail vein injection in 6-8 week old female Balb/c mice, prepared as in Example 13. After injection, the mice were executed at different time points (1 h, 3 h, 6 h, 24 h, 48 h after injection). The livers were taken and crushed, and the lipids were extracted from them with chloroform in three times, and the extracts were finally combined. After spin distillation to remove chloroform, methanol was added to dissolve the sample, and the cationic lipid content therein was analyzed by HPLC-CAD (Thermo Vanquish), with an Acclaim™ C18 column as the analytical column, a 0.5% TEAA aqueous solution as mobile phase A and a 0.5% TEAA methanol solution as mobile phase B. The sample was eluted according to the gradient in Table 2 below.

CCCCCCCCCSC(=O)CCCCCCCN(CCO)CCCCCCCC(=O)SC(CCCCCCCC)CCCCCCCC [Compound 9]
In vivo metabolism rate of cationic lipid (FIG. 3): metabolized in vivo faster than DLin-MC3-DMA
